Literature values as cited in US11318113B2, “Compounds for the treatment of diseases linked to mitochondrial reactive oxygen species (ROS) production” (OP2 DRUGS, priority 2015, dated 2022).

System: complex I
Details: Orr et al., 2013; cited from earlier work

For `O=[N+]([O-])c1ccc(Oc2ccc(S(=O)(=O)NC3CCCCC3)cc2)cc1` [N-cyclohexyl-4-(4-nitrophenoxy) benzenesulfonamide], the “activity of complex I as a component of the respiratory chain and oxidative phosphorylation” value is given as “does not modify”.
